In experiment [1] the target is T1, AlinCSP1 (Adelphocoris lineolatus, UniProt J7EJ71). The experiment in a line: Binding of fluorescent probe 1-NPN to AlinCSP1 (titration, Scatchard plot). Particulars: 2 µM protein, 1-NPN 2-16 µM, read-out: dissociation constant of the AlinCSP1/1-NPN complex. The protocol:
(§1) Fluorescence binding assays were performed on an F-380 fluorescence spectrophotometer (Tianjin, China) in a 1 cm light path quartz cuvette. The slit width used for excitation and emission was both 10 nm. The fluorescent probe N-phenyl-1-naphthylamine (1-NPN) was dissolved in methanol with a 1 mM stock solution. 1-NPN was excited at 337 nm and emission spectra were recorded between 390 nm and 530 nm.
(§2) All values reported were obtained from three independent measurements.
(§3) For determining binding constants, the intensity values corresponding to the maximum fluorescence emission were plotted against free ligand concentration. Bound ligand was evaluated from the values of fluorescence intensity assuming the protein was 100% active, with a stoichiometry of 1∶1 protein:ligand at saturation. The curves were linearized using Scatchard Plot. Dissociation constants of the competitors were calculated from the corresponding IC50 values, using the equation: KD = [IC50]/(1+[1-NPN]/K1-NPN), where [1-NPN] is the free concentration of 1-NPN and K1-NPN is the dissociation constant of the AlinCSP1-3/1-NPN complex.

Experiment [2] deals with T2, AlinCSP2 (Adelphocoris lineolatus, UniProt E7BLG5). The experiment in a line: Binding of fluorescent probe 1-NPN to AlinCSP2 (titration, Scatchard plot). Conditions: 2 µM protein, 1-NPN 2-16 µM, read-out: dissociation constant of the AlinCSP2/1-NPN complex. On the procedure: as §1, §2, §3
T2 sequence (E7BLG5 entry or part of it): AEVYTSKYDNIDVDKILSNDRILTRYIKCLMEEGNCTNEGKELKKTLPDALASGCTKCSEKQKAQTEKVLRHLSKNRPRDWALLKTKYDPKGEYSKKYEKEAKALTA
Experiment [3] deals with T3, AlinCSP3 (Adelphocoris lineolatus, UniProt E7BLG4). The experiment in a line: Binding of fluorescent probe 1-NPN to AlinCSP3 (titration, Scatchard plot). Conditions: 2 µM protein, 1-NPN 2-16 µM, read-out: dissociation constant of the AlinCSP3/1-NPN complex. On the procedure:
as §1, §2, §3

For experiment [4], the target named is T1, AlinCSP1. The experiment in a line: biochemical. Type of experiment: binding. Particulars: for Ki: Figure 7B legend. The protocol:
as §1, §2
(§4) For determining binding constants, the intensity values corresponding to the maximum fluorescence emission were plotted against free ligand concentration. Bound ligand was evaluated from the values of fluorescence intensity assuming the protein was 100% active, with a stoichiometry of 1∶1 protein:ligand at saturation. The curves were linearized using Scatchard Plot.

Experiment [5] addresses T2, AlinCSP2. The experiment in a line: biochemical. Particulars: for Ki: Figure 7B legend. Type of experiment: binding. On the procedure: as §1, §2, §4
The target of experiment [6] is T3, AlinCSP3. The experiment in a line: biochemical. Type of experiment: binding. Conditions: for Ki: Figure 7B legend. On the procedure: as §1, §2, §4
In the next experiment the test system is AlinCSP1-3. The experiment in a line: Fluorescence competitive binding assay, statements for the three CSPs together. Also noted: species or system Adelphocoris lineolatus. The protocol:
as §1, §2, §3

Another experiment has as its system A. lineolatus antennae. The experiment in a line: Electroantennogram (EAG) recordings. Further details: species or system Adelphocoris lineolatus. Particulars: normalized to 2-octanone; for EAG response in words: male and female adult antennae, 10% (v/v) in paraffin oil, good ligand = more than 50% of 2-octanone response; for EAG response, male versus female antennae: Student t-test between sexes. The source says:
Electrophysiological (EAG) recordings from each sex of adult individuals were made using Ag-AgCl glass pipette electrodes filled with 3 M KCl solution [69], [70]. The insects were anaesthetized by chilling, the antenna was amputated at the base and the tip of the antenna was cut off. The excised antenna was mounted between the electrodes by one teardrop of Spectra R360 electrically conductive gel (Syntech, Netherlands). The base of the antenna was connected to the reference electrode, while the terminal of tip-cut off antenna was connected to the recording electrode. An air stimulus controller CS-55 (Syntech, Netherlands) was used for air and chemical stimulants delivery with a constant flow of 10 ml/second flowed continuously over the antenna through the open end of the glass tube, which was positioned 1 cm from the antenna.
Twenty microliters of tested chemicals (100 µl/ml, 10% (v/v) dilution in paraffin oil except the hexadecanoic acid dissolved in hexane with 100 µg/ml) were applied to filter paper strips (1.5 cm×4 cm, Whatman No.1), and the solvent was allowed to evaporate for 30 sec before the paper strip was inserted into the glass Pasteur pipette cartridge (10 cm long, Fisher Scientific, Pittsburgh, Pennsylvania, USA). The chemicals were tested randomly, stimulus duration time was 0.5 second and an interval of at least 30 seconds was taken between stimulations for antennal recovery. Chemical odorants used for the EAG recordings are the same as used in the binding assays. […] The paraffin oil (Fluka, Buchs, Switzerland) was used to dissolve the chemicals and treated as control compound [71]. Each chemical was tested against six individual male and female antennae, and each antenna was tested three times. The signals were passed through a high impedance amplifier (CS-05 model, Syntech, the Netherlands), EAG responses were initially measured in millivolts (peak height of depolarization) and then converted to normalized responses by the Syntech EAG 2000 program (Syntech, the Netherlands). Response to the solvent control was subtracted from all normalized response and the normalized EAG responses were expressed as a percentage to the reference compound response. All results are presented as mean (±SE) normalized EAG responses. EAG responses between male and female individuals were compared with the Student t-test using SAS software.

[7] abbreviates: u.d. = KD not calculated because IC50>50 µM, read-out: KD (µM) AlinCSP1, given as u.d.
The mark [8] stands for this setting: u.d. = KD not calculated because IC50>50 µM, read-out: KD (µM) AlinCSP2, given as u.d.
Where [9] appears, read: u.d. = KD not calculated because IC50>50 µM, read-out: KD (µM) AlinCSP3, given as u.d.
[10] abbreviates: KD (µM) AlinCSP1, 1-NPN and protein at 2 µM, 50 mM Tris-HCl pH 7.4, KD calculated from IC50, mean of three measurements.
The mark [11] stands for this setting: KD (µM) AlinCSP2, 1-NPN and protein at 2 µM, 50 mM Tris-HCl pH 7.4, KD calculated from IC50, mean of three measurements.
Setting [12] is: KD (µM) AlinCSP3, 1-NPN and protein at 2 µM, 50 mM Tris-HCl pH 7.4, KD calculated from IC50, mean of three measurements.
Setting [13] is: 1-NPN and protein at 2 µM, 50 mM Tris-HCl pH 7.4, KD calculated from IC50, mean of three measurements, read-out: KD (µM) AlinCSP1.
Where [14] appears, read: 1-NPN and protein at 2 µM, 50 mM Tris-HCl pH 7.4, KD calculated from IC50, mean of three measurements, read-out: KD (µM) AlinCSP2.
The mark [15] stands for this setting: 1-NPN and protein at 2 µM, 50 mM Tris-HCl pH 7.4, KD calculated from IC50, mean of three measurements, read-out: KD (µM) AlinCSP3.

Entries after “also recorded” stand apart in the source; their conditions may differ.

T3 sequence (E7BLG4 entry or part of it): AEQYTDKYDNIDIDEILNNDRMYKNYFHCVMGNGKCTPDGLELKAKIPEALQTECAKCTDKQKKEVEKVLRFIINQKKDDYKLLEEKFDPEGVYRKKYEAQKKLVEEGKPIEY
T1 sequence (J7EJ71 entry or part of it): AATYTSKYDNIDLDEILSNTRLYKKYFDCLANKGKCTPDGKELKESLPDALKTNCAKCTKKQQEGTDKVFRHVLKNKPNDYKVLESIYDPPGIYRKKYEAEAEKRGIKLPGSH

Consider `c1ccc(Nc2cccc3ccccc23)cc1` [1-NPN, N-phenyl-1-naphthylamine], for which the figures for the Kd at AlinCSP1 [1], at AlinCSP2 [2] and at AlinCSP3 [3] were 1.83 µM, 1.92 µM and 4.45 µM, respectively.
On to `CCC/C=C/COC(=O)CCC` [(E)-2-Hexenyl butyrate], for which the Kd on AlinCSP1 [4] (setting [7]), at AlinCSP2 [5] (setting [8]) and at AlinCSP3 [6] (setting [9]) was greater than 50 µM each time. In addition, the Ki (as a rule, a dissociation constant, usually derived from enzyme kinetics or from competition with a known ligand) on AlinCSP2 [5] came out at 113 µM; at AlinCSP3 [6] it was 148 µM. Moreover, the “binding to the three CSPs in words” value in the experiment on AlinCSP1-3 is listed as “failed to bind with any of the three CSPs”. In the experiment on A. lineolatus antennae, the “EAG response in words” value is “elicited significant antennal responses from both male and female; also recorded: elicited high EAG responses”.
On to `CC/C=C\CCO` [(Z)-3-Hexen-1-ol], for which the Kd at AlinCSP1 [4] (setting [10]) was 12.5 ± 2.32 µM; on AlinCSP2 [5] (setting [11]), 15.1 ± 1.79 µM; on AlinCSP3 [6] (setting [12]), 16.3 ± 1.98 µM. Also, the “EAG response in words” value with A. lineolatus antennae is “elicited significant antennal responses from both male and female”.
Turning to `CC/C=C\CCOC(C)=O` [(Z)-3-Hexenyl acetate], the Kd at AlinCSP1 [4] (setting [13]) was 7.37 ± 2.49 µM; at AlinCSP2 [5] (setting [14]), 15.8 ± 1.68 µM; at AlinCSP3 [6] (setting [15]), 12.2 ± 1.82 µM. In the experiment on A. lineolatus antennae, the “EAG response, male versus female antennae” value is on record as “significantly higher EAG responses from female antennae than from male antennae”. Moreover, the “EAG response in words” value in the experiment on A. lineolatus antennae is given as “only elicited a high EAG response in the female”.
For `CCCC(=O)OCC` [Ethyl butyrate], the Ki on AlinCSP1 [4] was 95.2 µM; on AlinCSP2 [5], 92.5 µM; at AlinCSP3 [6], 101 µM. In addition, the Kd on AlinCSP1 [4] (setting [7]), at AlinCSP2 [5] (setting [8]) and at AlinCSP3 [6] (setting [9]) was greater than 50 µM each time. Also, the “binding to the three CSPs in words” value in the experiment on AlinCSP1-3 was “failed to bind with any of the three CSPs”. The “EAG response in words” value with A. lineolatus antennae was “elicited significant antennal responses from both male and female; also recorded: elicited high EAG responses”.
`COC(=O)c1ccccc1O` [Methyl salicylate]: the Kd was 8.67 ± 1.92 µM on AlinCSP1 [4] (setting [10]), 13.3 ± 1.71 µM on AlinCSP2 [5] (setting [11]) and 11.8 ± 1.89 µM at AlinCSP3 [6] (setting [12]). In addition, the “EAG response in words” value with A. lineolatus antennae was “failed to elicit high EAG response”.
On to `C=CC(=C)CCC=C(C)C` [Myrcene], for which the Kd at AlinCSP1 [4] (setting [13]) was 5.42 ± 0.93 µM; on AlinCSP2 [5] (setting [14]), 13 ± 1.72 µM; on AlinCSP3 [6] (setting [15]), 10.7 ± 1.64 µM. Moreover, in the experiment with A. lineolatus antennae, the “EAG response in words” value is on record as “failed to elicit high EAG response”.
Consider `CCCCCCCC` [Octane], for which the results for the Kd at AlinCSP1 [4] (setting [13]), on AlinCSP2 [5] (setting [14]) and on AlinCSP3 [6] (setting [15]) were 42.1 ± 1.42 µM, 44.4 ± 1.36 µM and 45.4 ± 1.54 µM, respectively. Further, the “EAG response, male versus female antennae” value in the experiment with A. lineolatus antennae is reported as “significantly higher EAG responses from male antennae than from female antennae”.
Turning to `CCCCCCCCCCC` [Undecane], the Kd at AlinCSP1 [4] (setting [13]) was 38.4 ± 1.54 µM; at AlinCSP2 [5] (setting [14]), 39.6 ± 2.36 µM; on AlinCSP3 [6] (setting [9]), greater than 50 µM. For the same compound, in the experiment on A. lineolatus antennae, the “EAG response, male versus female antennae” value was “significantly higher EAG responses from male antennae than from female antennae”.
For the compound `CCCCC=O` [Valeraldehyde], the figures for the Kd at AlinCSP1 [4] (setting [13]), at AlinCSP2 [5] (setting [14]) and on AlinCSP3 [6] (setting [15]) were 17.6 ± 2.54 µM, 13.4 ± 2.41 µM and 11.2 ± 1.52 µM, respectively. For the same compound, in the experiment with A. lineolatus antennae, the “EAG response in words” value was “elicited significant antennal responses from both male and female”.
With `CCCCCCCCCC` [decane], the Kd is 44.6 ± 0.75 µM at AlinCSP1 [4] (setting [13]), 46.4 ± 0.82 µM at AlinCSP2 [5] (setting [14]) and 47.2 ± 1.18 µM at AlinCSP3 [6] (setting [15]). Further, in the experiment with A. lineolatus antennae, the “EAG response, male versus female antennae” value is “significantly higher EAG responses from female antennae than from male antennae”.
For the compound `CCCCCCCCCCCCCCCC(=O)O` [hexadecanoic acid], the Ki was 118 µM on AlinCSP1 [4] and 137 µM at AlinCSP2 [5]. Further, the Kd on AlinCSP1 [4] (setting [7]), on AlinCSP2 [5] (setting [8]) and at AlinCSP3 [6] (setting [9]) was greater than 50 µM throughout. Also, the half-inhibitory concentration (IC50) (commonly the concentration at which inhibition is half-maximal) at AlinCSP1-3 (displacement of 1-NPN, all three CSPs) is greater than 50 µM. In addition, the “EAG response in words” value in the experiment with A. lineolatus antennae was “did not elicit notably EAG responses”.
Consider `C/C1=C\CC/C(C)=C/CC(C)(C)/C=C/C1` [α-Humulene], for which the Kd is 9.96 ± 0.89 µM on AlinCSP1 [4] (setting [13]), greater than 50 µM at AlinCSP2 [5] (setting [8]) and 8.94 ± 2.97 µM on AlinCSP3 [6] (setting [15]). Further, the “binding to AlinCSP2 in words” value on AlinCSP2 [5] was “failed to bind with AlinCSP2”. Besides, in the experiment with A. lineolatus antennae, the “EAG response in words” value is listed as “no notable EAG response”.
`C=C1CC/C=C(\C)CC[C@@H]2[C@@H]1CC2(C)C` [β-Caryophyllene]: the Kd is 9.22 ± 1.08 µM on AlinCSP1 [4] (setting [10]); greater than 50 µM on AlinCSP2 [5] (KD (µM) AlinCSP2, given as u.d., u.d. = KD not calculated because IC50>50 µM); 12.3 ± 2.42 µM on AlinCSP3 [6] (setting [12]). The “binding to AlinCSP2 in words” value at AlinCSP2 [5] is “failed to bind with AlinCSP2”. In addition, the “EAG response in words” value in the experiment with A. lineolatus antennae is reported as “no notable EAG response”.
For the compound `C=C1CCC2CC1C2(C)C` (stereo not drawn) [β-Pinene], the Kd was 7.07 ± 1.41 µM at AlinCSP1 [4] (setting [10]), 11.1 ± 1.91 µM at AlinCSP2 [5] (setting [11]) and 12.4 ± 2.09 µM on AlinCSP3 [6] (setting [12]). The “EAG response in words” value in the experiment with A. lineolatus antennae is listed as “failed to elicit high EAG response”.
